Entries after “also recorded” stand apart in the source; their conditions may differ. Where two headings read alike, the source gives them in different places.
What was measured:
MRSA USA300 (BAA-1680) [1] = assay: Growth kinetics (OD600) with bacitracin, alkyl gallates and combinations; format: cell-based, Staphylococcus aureus; conditions: bacitracin 0.001 U to 100 U
Text: (§1) MRSA (ATCC 33593), MSSA (ATCC 29213), and MRSA USA300 (BAA-1680) strains were purchased from the American Type Culture Collection (ATCC; Manassas, Va.). Eight clinical isolates of MRSA were obtained from the Culture Collection of Antimicrobial Resistant Microbes, Korea National Research Resource Center (KNRRC). Salmonella enterica Typhimurium LT2 was purchased from ATCC, and Escherichia coli O157:H7 is a kind gift from Dr. Sangryeol Ryu (Seoul National University, South Korea). All S. aureus strains were maintained in Trypticase Soy (TS) medium, and E. coli O157:H7 and Salmonella were routinely grown aerobically on Luria-Bertani (LB) media at 37° C. For measuring growth kinetics, an overnight culture of MRSA in Mueller-Hinton (MH) broth was diluted 100-fold in fresh MH broth and cultured until early exponential phase. The culture (200 μl) was transferred to each well of a sterile 96-well plate and incubated at 37° C. with bacitracin alone, alkyl gallate alone, and combination of bacitracin/alkyl gallates at various concentrations. The optical density at 600 nm (OD600) was measured every hour with FLUOstar® Omega (BMG Labtech, Germany).

MRSA USA300 (BAA-1680) [2] = assay: microbe, parasite or virus in culture; format: cell-based, Staphylococcus aureus; design: MBC of bacitracin in combination with OG / fold reduction in bacitracin MBC: dose or concentration left out as unconfirmed; conditions: for MBC of bacitracin in combination with alkyl gallate / fold decrease in bacitracin MBC: 5 μg ml^−1 alkyl gallate; for fold decrease in bacitracin MBC: versus bacitracin MBC 200 U; for bactericidal activity in combination with bacitracin: FIG. 2; for MBC / MIC: agent alone
Text: as §1
(§2) Broth micro dilution assays were performed to determine the minimum inhibitory concentrations (MIC) accordance to the M7-A7 protocol of the Clinical and Laboratory Standards Institute (CLSI) guidelines^28. The susceptibility test was carried out with an initial bacterial inoculum of 1.5×10^5 CFU ml^−1. Alkyl gallates and bacitracin were serially diluted in a polystyrene 96 well plate and the plate was incubated at 37° C. for 24 h. Minimum bactericidal concentration (MBC) was determined by spotting 10 μl of cultures from MIC tests onto MH agar and incubated aerobically at 37° C.

MRSA (ATCC 33593) = assay: microbe, parasite or virus in culture; format: cell-based, Staphylococcus aureus; conditions: MRSA; for MIC: antioxidant alone
Text: as §1, §2
(§3) MICs were determined with MRSA and methicillin-sensitive S. aureus (MSSA) using a broth dilution method as described above.
(§4) MRSA and MSSA were cultured overnight with antioxidants (0.5 μg/ml) and bacitracin at various concentrations and 10 μL of the culture was spotted on MH agar plates and incubated aerobically at 37° C. to observe the bacterial viability. The results in FIGS. 9A, 9B, 9C and 9D (photographs of plates) show the Minimal Bactericidal Concentrations (MBCs) for indicated antioxidants. Bacitracin killed MRSA and MSSA at concentrations greater than or equal to 2 μg/mi.

[3] = system: Salmonella enterica Typhimurium LT2; assay: MIC and MBC, alone and bacitracin/alkyl gallate combinations; format: cell-based; conditions: for MBC / MIC: Salmonella enterica, S. Typhimurium, agent alone
Text: as §1, §2
(§5) MIC and MBC were measured as described above. MIC and MBC data are shown in Table 5 for both the Salmonella and the E. coli strain tested. The tested strains were highly resistant to bacitracin.

MSSA (ATCC 29213) = assay: MIC (broth dilution) and MBC (spotting) of phenolic antioxidants and bacitracin; format: cell-based, Staphylococcus aureus; conditions: for MIC: antioxidant alone
Text: as §1, §2, §3, §4

Escherichia coli O157:H7 = assay: microbe, parasite or virus in culture; format: cell-based; conditions: for MBC / MIC: Escherichia coli
Text: as §1, §2, §5

[4] = system: MRSA (normal MRSA strain, not USA300); assay: MRSA growth (optical density) with bacitracin and phenolic antioxidants; format: cell-based, Staphylococcus aureus
Text: as §1
MRSA were grown with bacitracin (0.002 μg/mL) with antioxidant (as shown) at 0.5 μg/mL.
FIG. 7A is growth with no added bacitracin or lauryl gallate.
The optical density of MRSA was measured after 18 h culture with bacitracin (0.002 μg/ml) and antioxidants (as indicated at 0.5 μg/ml). Also measured were controls with no additions, with bacitracin alone and with antioxidant alone. FIGS. 8A, 8B, 8C and 8D are graphs illustrating the results.

MRSA 3903 = assay: microbe, parasite or virus in culture; format: cell-based, Staphylococcus aureus; conditions: for MIC: Staphylococcus aureus
Text: as §1, §2

MRSA 3799 = assay: microbe, parasite or virus in culture; format: cell-based, Staphylococcus aureus; conditions: for MIC: Staphylococcus aureus
Text: as §1, §2

MRSA 3876 = assay: microbe, parasite or virus in culture; format: cell-based, Staphylococcus aureus; conditions: Staphylococcus aureus
Text: as §1, §2

MRSA 3865 = assay: microbe, parasite or virus in culture; format: cell-based, Staphylococcus aureus; conditions: Staphylococcus aureus
Text: as §1, §2

MRSA 3095 = assay: microbe, parasite or virus in culture; format: cell-based, Staphylococcus aureus; conditions: Staphylococcus aureus
Text: as §1, §2

MRSA 3823 = assay: microbe, parasite or virus in culture; format: cell-based, Staphylococcus aureus; conditions: Staphylococcus aureus
Text: as §1, §2

MRSA 3795 = assay: microbe, parasite or virus in culture; format: cell-based, Staphylococcus aureus; conditions: Staphylococcus aureus
Text: as §1, §2

MRSA 3A585 = assay: microbe, parasite or virus in culture; format: cell-based, Staphylococcus aureus; conditions: Staphylococcus aureus
Text: as §1, §2

MRSA USA300 = assay: Biofilm assay (crystal violet); format: cell-based, Staphylococcus aureus; conditions: LG at different concentrations plus 10^−4 U bacitracin; 18 h; listed as LG
Experimental: Biofilm assays were performed as described previously^30. Briefly, overnight culture of MRSA was diluted 1:100 in TS broth and was grown in a 96-well microtiter plate in the presence or absence (a negative control) of combinations of bacitracin and lauryl gallate at different concentrations. After aerobic incubation at 37° C. for 18 h, biofilms were washed and stained with crystal violet. After washing unbound crystal violet, the absorbance at 630 nm was measured with FLUOstar Omega® (BMG Labtech).

USA300 = assay: Bacterial membrane permeability (propidium iodide fluorescence); format: cell-based, Staphylococcus aureus
Experimental: Membrane permeability was determined by measuring fluorescence after exposure of USA300 to propidium iodide as described previously^29. Briefly, USA300 was grown in MH broth to the exponential phase and then diluted to OD600≈0.25. Propidium iodide was mixed with bacteria to a final concentration of 10 μM. […] Fluorescence was monitored at excitation and emission wavelengths of 585 nm and 620 nm, respectively, for 1 h using FLUOstar Omega® (BMG Labtech, Germany). The membrane permeability was calculated by subtracting fluorescence intensity of controls without treatment with phenolic compounds from that of treated samples. EDTA (1 mM) was used as a positive control.

[5] = system: human clinical isolates of MRSA with multidrug- and hyper-resistance; assay: Bactericidal activity of OG plus bacitracin against clinical isolates; format: cell-based, Staphylococcus aureus
Text: as §1, with “The culture (200 μl) was transferred to each well of a sterile 96-well plate and incubated at 37° C. with bacitracin alone, alkyl gallate alone, and combination of bacitracin/alkyl gallates at various concentrations.” left out
Broth micro dilution assays were performed to determine the minimum inhibitory concentrations (MIC) accordance to the M7-A7 protocol of the Clinical and Laboratory Standards Institute (CLSI) guidelines^28. […] Minimum bactericidal concentration (MBC) was determined by spotting 10 μl of cultures from MIC tests onto MH agar and incubated aerobically at 37° C. […]

[6] = antioxidant 0.5 μg/ml, compared to bacitracin alone
[7] = Staphylococcus aureus, read-out: MIC

CCCCCCCCCCCCOC(=O)c1cc(O)c(O)c(O)c1 [Lauryl gallate, lauryl gallate]
growth inhibition by bacitracin in combination with alkyl gallate (MRSA USA300 (BAA-1680) [1]): significant growth inhibition
MBC of bacitracin in combination with alkyl gallate (MRSA USA300 (BAA-1680) [2]): 10^−1 U
fold decrease in bacitracin MBC (MRSA USA300 (BAA-1680) [2]): 2,000 fold
bactericidal activity in combination with bacitracin (MRSA USA300 (BAA-1680) [2]): synergistic antimicrobial activity
MBC (MRSA USA300 (BAA-1680) [2]): 64 µg/mL
MIC (MRSA USA300 (BAA-1680) [2]): 32 µg/mL
fold decrease of bacitracin MBC by antioxidant (MRSA (ATCC 33593); [6]): 512 fold
MIC (MRSA (ATCC 33593)): 128 µg/mL
MIC (MRSA (ATCC 33593); [7]): 64 µg/mL
MBC [3]: > 1020 µg/mL
MIC [3]: > 1020 µg/mL
synergistic effect with bacitracin ([3]; Salmonella, FIG. 10): more moderate synergistic effects
MIC (MSSA (ATCC 29213); [7]): 64 µg/mL
fold decrease of bacitracin MBC by antioxidant (MSSA (ATCC 29213); [6]): > 1,000 fold
MIC (MSSA (ATCC 29213)): 128 µg/mL
synergistic effect with bacitracin (Escherichia coli O157:H7; E. coli O157:H7, FIG. 10): more moderate synergistic effects
MBC (Escherichia coli O157:H7): 1020 µg/mL
MIC (Escherichia coli O157:H7): 512 µg/mL
growth of MRSA with bacitracin plus antioxidant ([4]; bacitracin 0.002 μg/mL, antioxidant 0.5 μg/mL, FIG. 6): significantly inhibited the growth of MRSA
optical density of MRSA after 18 h culture: inhibition of growth in combination with bacitracin ([4]; bacitracin 0.002 μg/ml (ca. 0.0002 U), antioxidant 0.5 μg/ml, 18 h, FIG. 8): significantly inhibited MRSA
concentration of lauryl gallate alone that inhibited MRSA growth ([4]; lauryl gallate 0.5 μg/mL to 256 μg/mL, FIG. 7C): 256 µg/mL
MRSA growth inhibition by lauryl gallate in combination with bacitracin ([4]; lauryl gallate 0.5 μg/ml, bacitracin 0.0019 μg/mL to 1 μg/mL, FIG. 7D): synergistically inhibited MRSA growth
MIC (MRSA 3903; MRSA 3903 (human/skin), read-out: MIC): 64 µg/mL
MIC (MRSA 3799; MRSA 3799 (human/nose), read-out: MIC): 32 µg/mL
MIC (MRSA 3876; MRSA 3876 (human/skin), read-out: MIC): 64 µg/mL
MIC (MRSA 3865; MRSA 3865 (human/skin), read-out: MIC): 64 µg/mL
MIC (MRSA 3095; MRSA 3095 (human/skin), read-out: MIC): 64 µg/mL
MIC (MRSA 3823; MRSA 3823 (human/nose), read-out: MIC): 64 µg/mL
MIC (MRSA 3795; MRSA 3795 (human/nose), read-out: MIC): 64 µg/mL
MIC (MRSA 3A585; MRSA 3A585 (human/blood), read-out: MIC): 64 µg/mL
biofilm formation (MRSA USA300): substantial reduction in the level of biofilm formation; also recorded: significant anti-biofilm effects

CCCCCCCCOC(=O)c1cc(O)c(O)c(O)c1 [Octyl gallate (OG), octyl gallate]
growth inhibition by bacitracin in combination with alkyl gallate (MRSA USA300 (BAA-1680) [1]): completely inhibited the growth of USA300
MBC of bacitracin in combination with alkyl gallate (MRSA USA300 (BAA-1680) [2]): 10^−3 U
fold decrease in bacitracin MBC (MRSA USA300 (BAA-1680) [2]): 200,000 fold
bactericidal activity in combination with bacitracin (MRSA USA300 (BAA-1680) [2]): Most significant bactericidal activity
MBC of bacitracin in combination with OG (MRSA USA300 (BAA-1680) [2]; OG): 10^−4 U
fold reduction in bacitracin MBC (MRSA USA300 (BAA-1680) [2]; OG): 2,000,000 fold
MBC (MRSA USA300 (BAA-1680) [2]): 64 µg/mL
MIC (MRSA USA300 (BAA-1680) [2]): 32 µg/mL
MBC [3]: 512 µg/mL
MIC [3]: 256 µg/mL
fold change in bacitracin MBC ([3]; Salmonella, 5 μg ml^−1 OG): > 1,000,000 fold
membrane permeability, OG in the presence of bacitracin (USA300; OG plus bacitracin): more significantly increased membrane permeability than OG treatment without bacitracin; also recorded: significantly altered membrane permeability
membrane permeability (USA300; agent alone, sub-MIC levels, EDTA 1 mM): permeabilized the membrane in a concentration-dependent manner; also recorded: increased the membrane permeability
fold change in bacitracin MBC (Escherichia coli O157:H7; E. coli O157:H7, 5 μg ml^−1 OG): > 1,000,000 fold
MBC (Escherichia coli O157:H7): 512 µg/mL
MIC (Escherichia coli O157:H7): 256 µg/mL
MBC of bacitracin with OG (MRSA 3903; MRSA 3903, 5 μg ml^−1 OG): 10^−2 U
MIC (MRSA 3903; MRSA): 16 µg/mL
MBC of bacitracin with OG (MRSA 3799; MRSA 3799, 5 μg ml^−1 OG): 10^−2 U
MIC (MRSA 3799; MRSA): 16 µg/mL
MIC (MRSA 3876; MRSA): 16 µg/mL
MIC (MRSA 3865; MRSA): 16 µg/mL
MIC (MRSA 3095; MRSA): 16 µg/mL
MIC (MRSA 3823; MRSA): 16 µg/mL
MIC (MRSA 3795; MRSA): 16 µg/mL
MIC (MRSA 3A585; MRSA): 16 µg/mL
killing of clinical MRSA isolates by OG plus bacitracin ([5]; FIG. 3): successfully killed all the tested clinical MRSA isolates; also recorded: effectively killed clinical MRSA isolates
bacitracin level at which most strains were killed with OG ([5]; most clinical MRSA strains, 5 μg ml^−1 OG): 10^−3 U

Source: patent US10420815B2, “Combinational therapy for synergistic inhibition of gram-positive and gram-negative bacteria” (priority 2015, dated 2019)
